US8877452B2, “Nitrite-reductase (NIRB) as potential anti-tubercular target and a method to detect the severity of tuberculosis disease” (priority 2013, dated 2014)
Read-outs that look alike come from different tables or passages of the source.

How the values were obtained:
[1] = system: THP-1 macrophages; assay: Cytotoxic effect on THP-1 macrophages, DAPI fluorescence microscopy; type: cell-based, Human; conditions: 100 μM; 10 days of treatment; compared with untreated control
Procedure: The THP1 macrophages were treated with 100 μM of p-HMB (Inhibitor) and incubated for 10 days and then stained with DAPI dye before taking pictures under a fluorescent microscope. The control cells were treated with the vehicle only under identical conditions.
THP-1 macrophage cells were grown on cover slip in 8 well microplates and washed twice with chilled methanol followed by staining with 4′,6-diamidino-2-phenylindole (DAPI) at final concentration of 300 nM. Macrophage cells were kept for 15 min at room temperature under dark condition. After incubation, cells were washed three times with distilled water and analyzed under the fluorescence microscope (Leitz Wetzlar model, Germany) at 350 nm excitation and 450 nm emission wavelengths (400×) using ‘A’ filter.
To investigate the host THP-1 macrophage cells condition due to its exposure to p-HMB inhibitor before considering its effective and specific inhibition of bacilli in macrophage infection models, fluorescence microscopic picture of THP-1 cells treated with p-HMB (100 μM) was compared with the untreated control after staining with DAPI (4′,6-diamidino-2-phenylindole). Fluorescence images were taken after 10th day of inhibitor treatment.

[2] = system: Mycobacterium tuberculosis in THP-1 macrophage; type: cell-based
[3] = system: Mycobacterium tuberculosis

SMILES	cytotoxic effect on macrophage (nuclear integrity, DAPI staining) [1]	decrease in intracellular viable bacilli count compared to control (without inhibitor) ([2]; […], cell count on 10th day PI, THP-1 macrophages)	reduction of bacilli count ([2]; in-vitro and ex-vivo conditions (summary statement))	cell count reduction compared to bacilli grown under ammonia [3]	decrease in intracellular viable bacilli count compared to control (without inhibitor) [2]
O=C(O)c1cc[c]([Hg][OH])cc1 [p-HMB, para-hydroxy mercuric benzoate]	without exhibiting any cytotoxic effects	~2 log difference	~2 log cfu	~2.5 log difference	
[N-]=[N+]=[N-] [Azide]					~1.5 log difference
CS(=N)(=O)CC[C@H](N)C(=O)O (stereo partly drawn) [L-MSO, L-methionine sulfoximine]					~2.5 log difference
